Counter-ions that a name gives are not always drawn.
How the values were obtained:
5-HT6 = 5-HT6 (Homo sapiens, UniProt P50406); assay: 5-HT6 receptor inhibition/binding (Tables 2-3)
Rats = assay: Antagonism against migraine: leakage of fluorescent protein (FITC-BSA) from meningeal vessels; type: in vivo; conditions: for protein leakage vs reference value: 5 mg/kg to 20 mg/kg
Description: It is known that inflammatory proteins leaked from meningeal vessels by 5-HT are implicated in causing migraine. The amount of the proteins leaked in the presence of the compound of Example 2.10 was measured and the preventive effect of the compound on migraine was assessed by a partial modification of the method described in the literature [Rachel A. Spokes, Vicki C. Middlefell, European Journal of Pharmacology (1995) 281, 75-79]. SB-269970, which is known as a 5-HT7 receptor antagonizing compound (J. Med. Chem. (2000) 43, 342-345), was used as a comparative compound. A negative control free of […] was prepared. The fluorescence intensity of the negative control was defined as a reference value. As a positive control, physiological saline was added instead of the compound of Example 2-10.
Rats (350-450 g) were administered urethane (1.5 g/kg) intraperitoneally. 50 mg/kg of a fluorescent protein (FITC-BSA) was administered intravenously through a cannula introduced into the saphenous vein, and 1 μM […] was administered intravenously. SB-269970 and the compound of Example 2.10 were administered intraperitoneally. The cerebral lobes were separated and the meninges were drawn from each rat. The meninges were allowed to stand at 37° C. for 16 h in the presence of physiological saline at pH 11, followed by centrifugation. The supernatant was plated on plates. The fluorescence intensity was measured using a fluorescence leader (excitation wavelength 485 nm, […] wavelength 530 nm) and the meninges were weighed. The fluorescence intensity per mg of the meningeal proteins was calculated.

5-HT1A = target: T1, 5-HT1A (Homo sapiens, UniProt P08908); assay: 5-HT1A receptor inhibition (Table 3); type: binding
T1 sequence (P08908 1-422): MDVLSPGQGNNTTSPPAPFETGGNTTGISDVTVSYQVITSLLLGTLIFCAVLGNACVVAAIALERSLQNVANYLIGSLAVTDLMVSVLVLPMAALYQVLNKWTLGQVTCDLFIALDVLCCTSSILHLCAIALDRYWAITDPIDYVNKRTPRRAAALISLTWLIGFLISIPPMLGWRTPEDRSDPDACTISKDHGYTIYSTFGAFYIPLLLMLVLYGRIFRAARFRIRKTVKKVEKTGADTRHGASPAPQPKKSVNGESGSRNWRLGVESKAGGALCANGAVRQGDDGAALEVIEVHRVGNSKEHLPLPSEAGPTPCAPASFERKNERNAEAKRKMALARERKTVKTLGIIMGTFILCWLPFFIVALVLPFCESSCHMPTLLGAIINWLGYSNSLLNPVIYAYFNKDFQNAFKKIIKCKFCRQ

[1] = target: T2, human gene recombinant 5-HT7 receptor expressed in CHO cells (Homo sapiens, UniProt P34969); assay: Binding affinity for the 5-HT7 serotonin receptor ([3H]LSD radioligand)
T2 construct: expressed in transfected cells; host or cells: CHO cells (membrane preparation)
T2 sequence (P34969 whole entry): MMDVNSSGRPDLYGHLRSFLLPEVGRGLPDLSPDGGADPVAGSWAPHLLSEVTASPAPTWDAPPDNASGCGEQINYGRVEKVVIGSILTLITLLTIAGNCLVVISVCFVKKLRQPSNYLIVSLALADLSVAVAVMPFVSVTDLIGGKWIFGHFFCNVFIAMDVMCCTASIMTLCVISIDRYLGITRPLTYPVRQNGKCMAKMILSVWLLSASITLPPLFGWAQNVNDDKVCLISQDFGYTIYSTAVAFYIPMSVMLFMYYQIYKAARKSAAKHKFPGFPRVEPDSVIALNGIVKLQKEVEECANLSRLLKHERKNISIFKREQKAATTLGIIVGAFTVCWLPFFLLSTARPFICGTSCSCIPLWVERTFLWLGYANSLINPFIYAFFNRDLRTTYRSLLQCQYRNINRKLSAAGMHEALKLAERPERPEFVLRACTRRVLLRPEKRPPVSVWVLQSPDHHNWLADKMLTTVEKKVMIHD
Description: In this example, the human gene recombinant 5-HT7 receptor expressed in CHO cells was used. 1 nM [^3H]LSD, 5-HT7 receptor membrane (15 μg/well), a test drug, 10 mM MgCl2, 50 mM Tris-HCl buffer (pH 7.4) containing 0.1 mM EDTA, etc. were added to a vessel until the final volume reached 0.25 ml. The test drug was used at various concentrations. The mixture was cultured at 25° C. for 90 min. The culture was rapidly filtered through a Whatman GF/C glass fiber filter, which had been previously wetted with 0.3% polyethyleneimine using a Brandel harvester, to quench the reaction. The reaction mixture was washed with cold 50 mM Tris-HCl buffer. The filter was covered with MeltiLex, sealed in a sample bag, and dried in an oven. Counting was performed using MicroBeta (Wallac) and nonspecific binding was measured in the presence of […]. The K value of the test drug was obtained from nonlinear regression analysis (GraphPad Prism Program, San Diego, USA) of isotherms obtained by repeatedly performing the experiment on the drug at 10-11 stage concentrations in two test tubes (each twice).
The % inhibition values of the inventive compounds having different Y structures at a concentration of 10 μM against the 5-HT7 serotonin receptor were measured. Further, the binding affinity (Ki) values of the inventive compounds having different Y structures at a concentration of 10 μM for the 5-HT7 serotonin receptor were measured.

5-HT2C = target: T3, 5-HT2C (Homo sapiens, UniProt P28335); assay: 5-HT2C receptor inhibition/binding (Tables 1-3)
T3 sequence (P28335 33-458): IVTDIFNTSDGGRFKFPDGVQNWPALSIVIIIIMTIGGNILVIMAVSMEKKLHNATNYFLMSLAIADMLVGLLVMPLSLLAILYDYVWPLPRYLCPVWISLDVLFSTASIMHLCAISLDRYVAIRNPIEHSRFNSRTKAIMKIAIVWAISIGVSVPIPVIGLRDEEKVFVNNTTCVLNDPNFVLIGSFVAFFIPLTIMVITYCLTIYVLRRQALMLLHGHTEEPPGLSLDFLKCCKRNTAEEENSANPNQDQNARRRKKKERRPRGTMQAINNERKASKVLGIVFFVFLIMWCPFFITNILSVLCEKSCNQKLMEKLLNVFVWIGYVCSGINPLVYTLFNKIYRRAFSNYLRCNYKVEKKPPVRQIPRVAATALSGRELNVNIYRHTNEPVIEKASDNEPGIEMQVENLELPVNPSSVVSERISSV

5-HT1E = 5-HT1E (Homo sapiens, UniProt P28566); assay: 5-HT1E receptor inhibition (Table 1); type: binding
Chain of 5-HT1E (P28566 whole entry, species assumed): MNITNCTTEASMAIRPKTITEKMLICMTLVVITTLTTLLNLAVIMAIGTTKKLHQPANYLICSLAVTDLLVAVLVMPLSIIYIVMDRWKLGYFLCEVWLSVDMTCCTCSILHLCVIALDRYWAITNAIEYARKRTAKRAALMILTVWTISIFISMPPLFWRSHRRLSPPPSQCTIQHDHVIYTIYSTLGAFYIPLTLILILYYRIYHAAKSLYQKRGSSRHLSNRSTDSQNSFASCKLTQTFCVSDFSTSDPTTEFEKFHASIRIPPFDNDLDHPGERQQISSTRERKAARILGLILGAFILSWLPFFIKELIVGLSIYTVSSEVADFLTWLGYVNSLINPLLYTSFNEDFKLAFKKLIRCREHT

Chain of 5-HT6 (P50406 whole entry, species assumed): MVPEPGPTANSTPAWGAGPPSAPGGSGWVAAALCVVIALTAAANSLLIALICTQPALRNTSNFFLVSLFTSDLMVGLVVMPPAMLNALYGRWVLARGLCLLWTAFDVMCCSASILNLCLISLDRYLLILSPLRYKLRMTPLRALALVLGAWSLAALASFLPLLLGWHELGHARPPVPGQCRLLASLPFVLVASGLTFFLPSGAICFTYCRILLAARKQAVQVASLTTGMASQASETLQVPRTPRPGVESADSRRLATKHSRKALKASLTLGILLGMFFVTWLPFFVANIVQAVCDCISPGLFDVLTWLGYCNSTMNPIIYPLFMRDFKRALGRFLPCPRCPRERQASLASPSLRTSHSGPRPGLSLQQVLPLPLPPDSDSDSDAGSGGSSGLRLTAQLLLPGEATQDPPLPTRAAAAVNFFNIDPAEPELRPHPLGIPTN

inhibition at 10 µM (5-HT6) [%] | inhibition at 10 µM (5-HT1A) [%] | Ki [1] [nM] | inhibition at 10 µM [1] [%] | inhibition at 10 µM (5-HT2C) [%] | Ki (5-HT2C) [nM] | SMILES | protein leakage vs reference value (Rats) | Ki (5-HT6) [nM] | amount of the proteins leaked (meningeal fluorescence intensity) (Rats; intraperitoneal, 10 mg/kg) | amount of the proteins leaked (meningeal fluorescence intensity) vs reference value (Rats; intraperitoneal, 30 mg/kg) | amount of the proteins leaked (meningeal fluorescence intensity) vs reference value (Rats; intraperitoneal, 3 mg/kg) | inhibition at 10 µM (5-HT1E) [%]
77.8 | 103 | 55 | 95.8 |  |  | Oc1ccccc1N1CCN(CCCCn2c3ccccc3c3ccccc32)CC1 [Example 2.55, 2-(4-(4-(9H-carbazol-9-yl)butyl)piperazin-1-yl)phenol] | suppressed to a level close to the reference value |  |  |  |  | 
 |  |  |  |  |  | CC1CCN(CC[C@H]2CCCN2S(=O)(=O)c2cccc(O)c2)CC1 [SB-269970, reference compound] |  |  | reduced the amount of the proteins leaked | not lowered down to the reference value |  | 
91.9 |  | 252 | 103 | 70.4 | 683 | O=C(CCCCCN1CCC(Cc2ccccc2)CC1)n1c2ccccc2c2ccccc21 [Example 2.10, 6-(4-Benzylpiperidin-1-yl)-1-(9H-carbazol-9-yl)hexan-1-one hydrochloride] |  | 354 |  |  | effectively suppressed to a level close to the reference value | 
 |  |  | 94.2 | 78.5 | 878 | CC1CCN(CCCCCC(=O)n2c3ccccc3c3ccccc32)CC1 [Example 2.4, 1-(9H-carbazol-9-yl)-6-(4-methylpiperidin-1-yl)hexan-1-one] | suppressed to a level close to the reference value |  |  |  |  | -11.6
85.3 | 94.2 | 38 | 100 | 73.5 |  | O=C(CCCCCN1CCN(c2ccccc2O)CC1)n1c2ccccc2c2ccccc21 [Example 2.15, 1-(9H-carbazol-9-yl)-6-(4-(2-hydroxyphenyl)piperazin-1-yl)hexan-1-one] | suppressed to a level close to the reference value |  |  |  |  | 
81.3 | 80.5 | 73 | 94.1 | 63.7 |  | O=C(CCCCCN1CCN(c2noc3ccccc23)CC1)n1c2ccccc2c2ccccc21 [Example 2.14, 6-(4-Benzo[d]isoxazol-3-yl)piperazin-1-yl)-1-(9H-carbazol-9-yl)hexan-1-one hydrochloride] | suppressed to a level close to the reference value |  |  |  |  | 

SMILES | inhibition at 10 µM (5-HT6) [%] | inhibition at 10 µM (5-HT1A) [%] | Ki [1] [nM] | inhibition at 10 µM [1] [%] | inhibition at 10 µM (5-HT2C) [%] | Ki (5-HT2C) [nM] | protein leakage vs reference value (Rats) | Ki (5-HT6) [nM] | amount of the proteins leaked (meningeal fluorescence intensity) (Rats; intraperitoneal, 10 mg/kg) | amount of the proteins leaked (meningeal fluorescence intensity) vs reference value (Rats; intraperitoneal, 30 mg/kg) | amount of the proteins leaked (meningeal fluorescence intensity) vs reference value (Rats; intraperitoneal, 3 mg/kg) | inhibition at 10 µM (5-HT1E) [%]
COc1ccccc1N1CCN(CCCCC(=O)n2c3ccccc3c3ccccc32)CC1 [Example 2.31, 1-(9H-carbazol-9-yl)-5-(4-(2-methoxyphenyl)piperazin-1-yl)pentan-1-one hydrochloride] | 44.4 | 103 | 30 | 99.6 | 62.6 |  | suppressed to a level close to the reference value |  |  |  |  | 
O=C(CCCCCN1CCC(c2ccccc2)CC1)n1c2ccccc2c2ccccc21 [Example 2.9, 1-(9H-carbazol-9-yl)-6-(4-phenylpiperidin-1-yl)hexan-1-one hydrochloride] | 92.2 |  | 157 | 99.8 | 55.3 | 758 | suppressed to a level close to the reference value | 373 |  |  |  | 
O=C(CCCCN1CCCC1)n1c2ccccc2c2ccccc21 [Example 2.19, 1-(9H-carbazol-9-yl)-5-(pyrrolidin-1-yl)pentan-1-one hydrochloride] |  |  | 2160 | 57.4 | 45 |  |  |  |  |  |  | 16.3

Source: US9663464B2, “Carbazole derivatives acting on 5-HT7 receptor” (KOREA INSTITUTE OF SCIENCE AND TECHNOLOGY, priority 2015, dated 2017)
